# Source: US20260250251A1, “HETEROCYCLIC COMPOUNDS AS PI3Ka INHIBITORS” (Pikavation Therapeutics, Inc., priority 2022, published 2026)
# What was measured:
# [1] = tested on: SKBR3 (PIK3CA WT) cells, pSer473 AKT; assay: pS473 AKT assay in SKBR3 cells; format: cell-based; details: Homo sapiens, SK-BR-3, treated 2 h, read-out: SKBR3_IC50
# Experimental: (§1) SKBR3 (PIK3CA WT), MCF7 (PIK3CA E545K), and T47D (PIK3CA H1047R) cells were cultured using 10-cm petri dishes with recommended medium. One day before the assay, cells were seeded in 96-well plates. After overnight incubation, cells were treated with different concentrations of PI3Kα inhibitors for 2 h. Cells were then fixed using 4% paraformaldehyde at room temperature for 20 min. Cells were aspirated with 4% paraformaldehyde, and washed using 1× regular phosphate buffered saline 3 times, 5 min each. Any residual phosphate buffered saline was aspirated and cells were blocked using 10% goat serum containing 1% bovine serum albumin and 0.3% Triton X-100 at room temperature for 1 h. Without any additional washing, primary antibodies (rabbit anti-pSer473 AKT) were diluted using blocking buffer and added at a final volume of 50 microliter per well. Assay plates with primary antibodies were maintained overnight at 4° C. Cells were washed using 1× regular phosphate buffered saline 3 times, 5 min each. After the final wash, cells were incubated with horseradish peroxidase-conjugated secondary antibodies (goat Anti-rabbit IgG) and diluted using the same blocking buffer at room temperature for 1 h. Cells were then washed thoroughly using 1× regular phosphate buffered saline 3 times, 5 min each, and any residual phosphate buffered saline was aspirated. Super-Signal ELISA Pico Chemiluminescent Substrate was then added at a final volume of 100 microliter per well. Plates were read on a i3x Multi-Mode Microplate Reader and IC50 values calculated using GraphPad Prism software.
# (§2) Results of the assay described above are presented in Table A. “++++” indicates an IC50 less than 1000 nM; “+++” indicates an IC50 greater than or equal to 1000 nM but less than 5000 nM; “++” indicates an IC50 greater than or equal to 5000 nM but less than 10000 nM; and “+” indicates an IC50 greater than or equal to 10000 nM.
# [2] = tested on: T47D (PIK3CA H1047R) cells, pSer473 AKT; assay: pS473 AKT assay in T47D cells; format: cell-based; details: Homo sapiens, treated 2 h, read-out: T47D_IC50
# Experimental: as §1, §2
IC50 [1],IC50 [2],SMILES
< 1000 nM,< 1000 nM,"Nc1n[nH]c2ccc(NC(=O)c3cc(F)cc(C(F)(F)F)c3)c(Oc3cc(F)ccc3Cl)c12 [Example 1, N-(3-Amino-4-(2-chloro-5-fluorophenoxy)-1H-indazol-5-yl)-3-fluoro-5-(trifluoromethyl)benzamide]"
1000 to 5000 nM,< 1000 nM,"CNc1n[nH]c2ccc(NC(=O)c3cc(F)cc(C(F)(F)F)c3)c(Oc3cc(F)ccc3Cl)c12 [Example 2, N-(4-(2-Chloro-5-fluorophenoxy)-3-(methylamino)-1H-indazol-5-yl)-3-fluoro-5-(trifluoromethyl)benzamide]"
≥ 10000 nM,< 1000 nM,"Nc1n[nH]c2ccc(NC(=O)c3cc(F)cc(C(F)(F)F)c3)c(Oc3cncc(Cl)c3)c12 [Example 3, N-(3-Amino-4-((5-chloropyridin-3-yl)oxy)-1H-indazol-5-yl)-3-fluoro-5-(trifluoromethyl)benzamide]"
5000 to 10000 nM,< 1000 nM,"Nc1n[nH]c2ccc(NC(=O)c3cc(F)cc(C(F)(F)F)c3)c(Nc3cc(F)ccc3Cl)c12 [Example 4, N-(3-Amino-4-((2-chloro-5-fluorophenyl)amino)-1H-indazol-5-yl)-3-fluoro-5-(trifluoromethyl)benzamide]"
5000 to 10000 nM,1000 to 5000 nM,"Nc1n[nH]c2ccc(NC(=O)c3cc(F)cc(C(F)(F)F)c3)c(Cc3cc(F)ccc3Cl)c12 [Example 5, N-(3-Amino-4-(2-chloro-5-fluorobenzyl)-1H-indazol-5-yl)-3-fluoro-5-(trifluoromethyl)benzamide]"
≥ 10000 nM,1000 to 5000 nM,"Nc1n[nH]c2ccc(NC(=O)c3cc(F)cc(C(F)(F)F)c3)c(COc3cc(F)ccc3Cl)c12 [Example 6, N-(3-amino-4-((2-chloro-5-fluorophenoxy)methyl)-1H-indazol-5-yl)-3-fluoro-5-(trifluoromethyl)benzamide]"
< 1000 nM,< 1000 nM,"Cn1nc(N)c2c(Oc3cc(F)ccc3Cl)c(NC(=O)c3cc(F)cc(C(F)(F)F)c3)ccc21 [Example 7, N-(3-amino-4-(2-chloro-5-fluorophenoxy)-1-methyl-1H-indazol-5-yl)-3-fluoro-5-(trifluoromethyl)benzamide]"
< 1000 nM,< 1000 nM,"CCn1nc(N)c2c(Oc3cc(F)ccc3Cl)c(NC(=O)c3cc(F)cc(C(F)(F)F)c3)ccc21 [Example 8, N-(3-Amino-4-(2-chloro-5-fluorophenoxy)-1-ethyl-1H-indazol-5-yl)-3-fluoro-5-(trifluoromethyl)benzamide]"
1000 to 5000 nM,< 1000 nM,"CNC(=O)Cn1nc(N)c2c(Oc3cc(F)ccc3Cl)c(NC(=O)c3cc(F)cc(C(F)(F)F)c3)ccc21 [Example 9, N-(3-Amino-4-(2-chloro-5-fluorophenoxy)-1-(2-(methylamino)-2-oxoethyl)-1H-indazol-5-yl)-3-fluoro-5-(trifluoromethyl)benzamide]"
1000 to 5000 nM,< 1000 nM,"Nc1nn(CC(=O)N2CCOCC2)c2ccc(NC(=O)c3cc(F)cc(C(F)(F)F)c3)c(Oc3cc(F)ccc3Cl)c12 [Example 10, N-(3-Amino-4-(2-chloro-5-fluorophenoxy)-1-(2-morpholino-2-oxoethyl)-1H-indazol-5-yl)-3-fluoro-5-(trifluoromethyl)benzamide]"
< 1000 nM,< 1000 nM,"Nc1n[nH]c2c(Br)cc(NC(=O)c3cc(F)cc(C(F)(F)F)c3)c(Oc3cc(F)ccc3Cl)c12 [Example 11, N-(3-Amino-7-bromo-4-(2-chloro-5-fluorophenoxy)-1H-indazol-5-yl)-3-fluoro-5-(trifluoromethyl)benzamide]"
< 1000 nM,< 1000 nM,"Nc1n[nH]c2c(Cl)cc(NC(=O)c3cc(F)cc(C(F)(F)F)c3)c(Oc3cc(F)ccc3Cl)c12 [Example 12, N-(3-Amino-7-chloro-4-(2-chloro-5-fluorophenoxy)-1H-indazol-5-yl)-3-fluoro-5-(trifluoromethyl)benzamide]"
< 1000 nM,< 1000 nM,"Cc1cc(NC(=O)c2cc(F)cc(C(F)(F)F)c2)c(Oc2cc(F)ccc2Cl)c2c(N)n[nH]c12 [Example 13, N-(3-Amino-4-(2-chloro-5-fluorophenoxy)-7-methyl-1H-indazol-5-yl)-3-fluoro-5-(trifluoromethyl)benzamide]"
1000 to 5000 nM,< 1000 nM,"Cn1cc(-c2cc(NC(=O)c3cc(F)cc(C(F)(F)F)c3)c(Oc3cc(F)ccc3Cl)c3c(N)n[nH]c23)cn1 [Example 14, N-(3-Amino-4-(2-chloro-5-fluorophenoxy)-7-(1-methyl-1H-pyrazol-4-yl)-1H-indazol-5-yl)-3-fluoro-5-(trifluoromethyl)benzamide]"
< 1000 nM,< 1000 nM,"Cn1nccc1-c1cc(NC(=O)c2cc(F)cc(C(F)(F)F)c2)c(Oc2cc(F)ccc2Cl)c2c(N)n[nH]c12 [Example 15, N-(3-Amino-4-(2-chloro-5-fluorophenoxy)-7-(1-methyl-1H-pyrazol-5-yl)-1H-indazol-5-yl)-3-fluoro-5-(trifluoromethyl)benzamide]"
1000 to 5000 nM,< 1000 nM,"Nc1n[nH]c2c(-c3cccnc3)cc(NC(=O)c3cc(F)cc(C(F)(F)F)c3)c(Oc3cc(F)ccc3Cl)c12 [Example 16, N-(3-Amino-4-(2-chloro-5-fluorophenoxy)-7-(pyridin-3-yl)-1H-indazol-5-yl)-3-fluoro-5-(trifluoromethyl)benzamide]"
1000 to 5000 nM,< 1000 nM,"Nc1n[nH]c2c(-c3ccccc3)cc(NC(=O)c3cc(F)cc(C(F)(F)F)c3)c(Oc3cc(F)ccc3Cl)c12 [Example 17, N-(3-Amino-4-(2-chloro-5-fluorophenoxy)-7-phenyl-1H-indazol-5-yl)-3-fluoro-5-(trifluoromethyl)benzamide]"
< 1000 nM,< 1000 nM,"Nc1n[nH]c2ccc(NC(=O)c3csc4ccccc34)c(Oc3cc(F)ccc3Cl)c12 [Example 18, N-(3-Amino-4-(2-chloro-5-fluorophenoxy)-1H-indazol-5-yl)benzo[b]thiophene-3-carboxamide]"
1000 to 5000 nM,< 1000 nM,"Nc1n[nH]c2ccc(NC(=O)N3CC(O)(C(F)(F)F)c4cc(F)ccc43)c(Oc3cc(F)ccc3Cl)c12 (centres unmarked) [Example 19, N-(3-Amino-4-(2-chloro-5-fluorophenoxy)-1H-indazol-5-yl)-5-fluoro-3-hydroxy-3-(trifluoromethyl)indoline-1-carboxamide]"
1000 to 5000 nM,< 1000 nM,"Nc1nnc2ccc(NC(=O)c3cc(F)cc(C(F)(F)F)c3)c(Oc3cc(F)ccc3Cl)n12 [Example 20, N-(3-Amino-5-(2-chloro-5-fluorophenoxy)-[1,2,4]triazolo[4,3-a]pyridin-6-yl)-3-fluoro-5-(trifluoromethyl)benzamide]"
< 1000 nM,< 1000 nM,"Nc1n[nH]c2c(CN3CCOCC3)cc(NC(=O)c3cc(F)cc(C(F)(F)F)c3)c(Oc3cc(F)ccc3Cl)c12 [Example 21, N-(3-Amino-4-(2-chloro-5-fluorophenoxy)-7-(morpholinomethyl)-1H-indazol-5-yl)-3-fluoro-5-(trifluoromethyl)benzamide]"
< 1000 nM,< 1000 nM,"Nc1nn2c3c(cc(NC(=O)c4cc(F)cc(C(F)(F)F)c4)c(Oc4cc(F)ccc4Cl)c13)CCC2 [Example 22, N-(2-amino-3-(2-chloro-5-fluorophenoxy)-7,8-dihydro-6H-pyrazolo[4,5,1-ij]quinolin-4-yl)-3-fluoro-5-(trifluoromethyl)benzamide]"
